Tests used:
[1] = Selectivity ratio of IC50 for equine serum BChE to IC50 for electric eel AChE
[2] = Selectivity ratio of IC50 for electric eel AChE to IC50 for equine serum BChE
Cholinesterase = Cholinesterase (Equus caballus, UniProt P81908); experiment: Inhibition of equine serum BChE using S-butyrylthiocholine chloride as substrate preincubated for 15 mins by spectrophotometer analysis
Acetylcholinesterase = Acetylcholinesterase (Electrophorus electricus, UniProt O42275); experiment: Inhibition of electric eel AChE using acetylthiocholine iodide as substrate preincubated for 15 mins by spectrophotometer analysis
Acetylcholinesterase, sequence (O42275 whole entry): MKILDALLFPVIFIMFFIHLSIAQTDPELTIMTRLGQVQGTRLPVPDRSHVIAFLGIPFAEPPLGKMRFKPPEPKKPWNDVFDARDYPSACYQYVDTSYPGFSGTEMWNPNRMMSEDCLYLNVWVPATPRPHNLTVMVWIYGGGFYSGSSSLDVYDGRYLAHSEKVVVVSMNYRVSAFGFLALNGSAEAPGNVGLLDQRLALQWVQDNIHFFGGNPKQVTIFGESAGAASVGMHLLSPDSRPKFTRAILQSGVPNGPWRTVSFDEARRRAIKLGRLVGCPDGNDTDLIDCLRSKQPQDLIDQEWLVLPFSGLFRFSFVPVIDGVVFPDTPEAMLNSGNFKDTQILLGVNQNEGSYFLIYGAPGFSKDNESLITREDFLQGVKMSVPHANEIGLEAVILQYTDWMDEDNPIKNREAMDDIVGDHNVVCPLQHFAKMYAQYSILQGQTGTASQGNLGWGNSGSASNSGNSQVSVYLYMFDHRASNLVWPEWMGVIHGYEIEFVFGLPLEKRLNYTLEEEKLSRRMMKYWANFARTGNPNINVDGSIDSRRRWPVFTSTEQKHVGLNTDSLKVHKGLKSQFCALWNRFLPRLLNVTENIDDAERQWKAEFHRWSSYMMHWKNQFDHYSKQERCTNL

Cholinesterase, sequence (P81908 whole entry): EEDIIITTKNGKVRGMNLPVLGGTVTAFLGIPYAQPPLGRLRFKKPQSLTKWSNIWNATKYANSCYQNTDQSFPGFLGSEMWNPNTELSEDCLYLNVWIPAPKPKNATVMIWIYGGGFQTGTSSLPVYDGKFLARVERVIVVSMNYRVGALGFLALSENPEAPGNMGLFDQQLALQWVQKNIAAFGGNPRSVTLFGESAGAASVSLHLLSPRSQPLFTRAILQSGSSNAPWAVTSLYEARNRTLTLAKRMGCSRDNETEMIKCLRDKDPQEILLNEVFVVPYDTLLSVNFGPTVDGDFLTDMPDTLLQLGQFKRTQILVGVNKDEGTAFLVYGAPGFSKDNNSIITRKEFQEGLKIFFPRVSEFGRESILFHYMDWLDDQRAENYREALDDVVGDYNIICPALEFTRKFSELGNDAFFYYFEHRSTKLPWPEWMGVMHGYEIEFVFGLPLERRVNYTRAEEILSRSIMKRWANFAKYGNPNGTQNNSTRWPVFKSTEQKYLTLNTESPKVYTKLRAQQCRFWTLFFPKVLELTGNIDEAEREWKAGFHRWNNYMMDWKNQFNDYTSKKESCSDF

SMILES | Ratio IC50 [1] | Ratio IC50 [2] | IC50 (Cholinesterase) [µM] | IC50 (Acetylcholinesterase) [µM]
O=C(C1CC(c2ccccc2)NC12C(=O)Nc1ccccc12)N1C/C(=C\c2ccccc2)C(=O)C2(C1)C(c1ccccc1)C(c1ccccc1)NC21C(=O)Nc2ccccc21 (racemic) | 1.27 | 0.79 | 26.3 | 20.8
O=C(C1CC(c2ccccc2)NC12C(=O)Nc1ccccc12)N1C/C(=C\c2ccc(Cl)cc2Cl)C(=O)C2(C1)C(c1ccc(Cl)cc1Cl)C(c1ccccc1)NC21C(=O)Nc2ccccc21 (racemic) | 3.06 | 0.33 | 26.3 | 8.61
C=CC(=O)N1C/C(=C\c2ccccc2OC)C(=O)C2(C1)C(c1ccccc1OC)C(c1ccccc1)NC21C(=O)Nc2ccccc21 (racemic) | 3.14 | 0.32 | 17.5 | 5.57
C=CC(=O)N1C/C(=C\c2ccccc2C)C(=O)C2(C1)C(c1ccccc1C)C(c1ccccc1)NC21C(=O)Nc2ccccc21 (racemic) | 2.13 | 0.47 | 21.8 | 10.2
C=CC(=O)N1C/C(=C\c2ccc(Cl)cc2)C(=O)C2(C1)C(c1ccc(Cl)cc1)C(c1ccccc1)NC21C(=O)Nc2ccccc21 (racemic) | 1.9 | 0.53 | 8.75 | 4.61
C=CC(=O)N1C/C(=C\c2ccc(F)cc2)C(=O)C2(C1)C(c1ccc(F)cc1)C(c1ccccc1)NC21C(=O)Nc2ccccc21 (racemic) | 0.46 | 2.17 | 2.75 | 5.98
O=C(C1CC(c2ccccc2)NC12C(=O)Nc1ccccc12)N1C/C(=C\c2ccccc2Cl)C(=O)C2(C1)C(c1ccccc1Cl)C(c1ccccc1)NC21C(=O)Nc2ccccc21 (racemic) | 1.56 | 0.64 | 17.6 | 11.3
O=C(C1CC(c2ccccc2)NC12C(=O)Nc1ccccc12)N1C/C(=C\c2ccc(Cl)cc2)C(=O)C2(C1)C(c1ccc(Cl)cc1)C(c1ccccc1)NC21C(=O)Nc2ccccc21 (racemic) | 2.25 | 0.44 | 27.8 | 12.3
C=CC(=O)N1C/C(=C\c2ccccc2F)C(=O)C2(C1)C(c1ccccc1F)C(c1ccccc1)NC21C(=O)Nc2ccccc21 (racemic) | 5.18 | 0.19 | 11.8 | 2.27
COc1ccccc1/C=C1\CN(C(=O)C2CC(c3ccccc3)NC23C(=O)Nc2ccccc23)CC2(C1=O)C(c1ccccc1OC)C(c1ccccc1)NC21C(=O)Nc2ccccc21 (racemic) | 3.51 | 0.28 | 32.1 | 9.15
C=CC(=O)N1C/C(=C\c2cccc3ccccc23)C(=O)C2(C1)C(c1cccc3ccccc13)C(c1ccccc1)NC21C(=O)Nc2ccccc21 (racemic) | 6.65 | 0.15 | 13.8 | 2.07
O=C(C1CC(c2ccccc2)NC12C(=O)Nc1ccccc12)N1C/C(=C\c2cccc([N+](=O)[O-])c2)C(=O)C2(C1)C(c1cccc([N+](=O)[O-])c1)C(c1ccccc1)NC21C(=O)Nc2ccccc21 (racemic) | 1.05 | 0.95 | 17.6 | 16.8
O=C(C1CC(c2ccccc2)NC12C(=O)Nc1ccccc12)N1C/C(=C\c2cccc3ccccc23)C(=O)C2(C1)C(c1cccc3ccccc13)C(c1ccccc1)NC21C(=O)Nc2ccccc21 (racemic) | 2.08 | 0.48 | 19.2 | 9.24
O=C(C1CC(c2ccccc2)NC12C(=O)Nc1ccccc12)N1C/C(=C\c2ccc(F)cc2)C(=O)C2(C1)C(c1ccc(F)cc1)C(c1ccccc1)NC21C(=O)Nc2ccccc21 (racemic) | 0.66 | 1.51 | 14.4 | 21.9
Cc1ccccc1/C=C1\CN(C(=O)C2CC(c3ccccc3)NC23C(=O)Nc2ccccc23)CC2(C1=O)C(c1ccccc1C)C(c1ccccc1)NC21C(=O)Nc2ccccc21 (racemic) | 0.95 | 1.05 | 29.1 | 30.5
C=CC(=O)N1C/C(=C\c2cccc([N+](=O)[O-])c2)C(=O)C2(C1)C(c1cccc([N+](=O)[O-])c1)C(c1ccccc1)NC21C(=O)Nc2ccccc21 (racemic) | 0.7 | 1.43 | 10.6 | 15.1
Cc1ccc(/C=C2\CN(C(=O)C3CC(c4ccccc4)NC34C(=O)Nc3ccccc34)CC3(C2=O)C(c2ccc(C)cc2)C(c2ccccc2)NC32C(=O)Nc3ccccc32)cc1 (racemic) | 0.98 | 1.02 | 19.8 | 20.2
C=CC(=O)N1C/C(=C\c2ccc(Cl)cc2Cl)C(=O)C2(C1)C(c1ccc(Cl)cc1Cl)C(c1ccccc1)NC21C(=O)Nc2ccccc21 (racemic) | 4.4 | 0.23 | 27.1 | 6.16
C=CC(=O)N1C/C(=C\c2ccccc2Cl)C(=O)C2(C1)C(c1ccccc1Cl)C(c1ccccc1)NC21C(=O)Nc2ccccc21 (racemic) | 13.2 | 0.08 | 22.2 | 1.68
C=CC(=O)N1C/C(=C\c2ccc(C)cc2)C(=O)C2(C1)C(c1ccc(C)cc1)C(c1ccccc1)NC21C(=O)Nc2ccccc21 (racemic) | 0.4 | 2.48 | 5.87 | 14.6
O=C(C1CC(c2ccccc2)NC12C(=O)Nc1ccccc12)N1C/C(=C\c2ccccc2F)C(=O)C2(C1)C(c1ccccc1F)C(c1ccccc1)NC21C(=O)Nc2ccccc21 (racemic) | 4.81 | 0.21 | 35.9 | 7.45
C=CC(=O)N1C/C(=C\c2ccccc2)C(=O)C2(C1)C(c1ccccc1)C(c1ccccc1)NC21C(=O)Nc2ccccc21 (racemic) | 2.69 | 0.37 | 12.3 | 4.57

Reference: ChEMBL document CHEMBL3232846, “Synthesis and discovery of highly functionalized mono- and bis-spiro-pyrrolidines as potent cholinesterase enzyme inhibitors” (Bioorg Med Chem Lett, 2014)
